The values below come from US20260007684A1, “AMIDE DERIVATIVES FOR INHIBITING NLRP3 AND USES THEREOF” (Ventus Therapeutics U.S., Inc., priority 2023, published 2026).

Experiment [1] concerns the target T1, human NLRP3 (Homo sapiens (Human), UniProt Q96P20). The experiment in a line: Human Whole Blood (hWB) NLRP3 Assay (LPS/ATP, IL-1β). Type of experiment: cell-based.
Experiment [2] addresses T1, human NLRP3. The experiment in a line: Human PBMC NLRP3 Assay (LPS priming, ATP stimulation, cytokine measurement). Type of experiment: cell-based.
Experiment [3] has as its target T1, human NLRP3. The experiment in a line: Scintillation Proximity (SPA) NLRP3 Assay: displacement of 3H-MCC950. The settings on record: read-out: SPA IC50. The class given is binding.
Setting [4] is: human whole blood, LPS/ATP, IL-1β, read-out: hWB IC50.
Where [5] appears, read: human PBMC, LPS priming, ATP stimulation, read-out: PBMC IC50.
The mark [6] stands for this setting: PBMC IC50, human PBMC, LPS priming, ATP stimulation.
Setting [7] is: hWB IC50, human whole blood, LPS/ATP, IL-1β.

T1 sequence (Q96P20 whole entry): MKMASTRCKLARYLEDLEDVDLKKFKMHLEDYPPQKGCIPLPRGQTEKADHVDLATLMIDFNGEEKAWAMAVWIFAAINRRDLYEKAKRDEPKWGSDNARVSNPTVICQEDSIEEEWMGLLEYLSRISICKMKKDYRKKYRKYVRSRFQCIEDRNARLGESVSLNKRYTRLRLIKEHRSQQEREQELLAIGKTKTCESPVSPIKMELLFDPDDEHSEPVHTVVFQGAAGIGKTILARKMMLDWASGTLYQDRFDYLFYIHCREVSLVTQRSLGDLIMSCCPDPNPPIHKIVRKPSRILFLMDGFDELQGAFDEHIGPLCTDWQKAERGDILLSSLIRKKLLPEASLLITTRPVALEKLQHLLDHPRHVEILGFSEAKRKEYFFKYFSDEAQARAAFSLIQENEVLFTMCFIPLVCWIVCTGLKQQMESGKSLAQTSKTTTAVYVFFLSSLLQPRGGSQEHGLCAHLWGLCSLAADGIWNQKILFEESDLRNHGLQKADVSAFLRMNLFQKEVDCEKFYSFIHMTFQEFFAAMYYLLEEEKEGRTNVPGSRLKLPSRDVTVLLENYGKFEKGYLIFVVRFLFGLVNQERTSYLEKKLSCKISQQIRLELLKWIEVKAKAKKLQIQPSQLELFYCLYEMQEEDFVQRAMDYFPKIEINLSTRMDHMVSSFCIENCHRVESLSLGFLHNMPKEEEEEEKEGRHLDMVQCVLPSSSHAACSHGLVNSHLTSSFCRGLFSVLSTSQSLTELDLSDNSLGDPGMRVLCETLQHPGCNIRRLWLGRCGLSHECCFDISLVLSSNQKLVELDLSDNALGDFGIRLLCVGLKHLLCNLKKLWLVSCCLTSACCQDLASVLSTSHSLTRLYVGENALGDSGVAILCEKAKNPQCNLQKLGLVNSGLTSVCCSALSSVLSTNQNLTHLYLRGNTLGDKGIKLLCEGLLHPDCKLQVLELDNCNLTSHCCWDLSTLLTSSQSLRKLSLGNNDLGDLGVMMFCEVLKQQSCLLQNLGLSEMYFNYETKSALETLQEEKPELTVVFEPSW

As to `C[C@H]1C[C@@H](NC(=O)C2(c3ccc(C4CC4(F)F)cc3O)CC2)CN(c2nnn[nH]2)C1` (single isomer, unassigned) [94A*], the 50% inhibitory concentration (IC50) on human NLRP3 [1] (setting [4]) is more than 3000 nM; at human NLRP3 [2] (setting [5]), 10 to 100 nM; on human NLRP3 [3] (displacement of 3H-MCC950), less than 1000 nM.
Turning to `C[C@@H]1CCN(c2nnn[nH]2)C[C@H](NC(=O)C2(c3ccc(C(F)(F)F)cc3)CC2)C1` (single isomer, unassigned) [61A*], the values for the half-inhibitory concentration (IC50) on human NLRP3 [1] (setting [4]), at human NLRP3 [2] (setting [5]) and on human NLRP3 [3] (displacement of 3H-MCC950) were less than 1000 nM, 10 to 100 nM and less than 1000 nM, respectively.
With `Cc1ccc(C2(C(=O)N[C@@H]3C[C@H](C)CCN(c4nnn[nH]4)C3)CC2)c(O)c1F` (single isomer, unassigned) [74A*], the results for the IC50 at human NLRP3 [1] (setting [4]), at human NLRP3 [2] (setting [5]) and at human NLRP3 [3] (displacement of 3H-MCC950) were less than 1000 nM, less than 10 nM and less than 1000 nM, respectively.
As to `O=C(N[C@@H]1CC[C@H]2CC[C@@H]1N2c1nnn[nH]1)C1(c2ccc(Cl)cc2O)CC1` [75C*, N-((1S,2R,5S)-8-(1H-tetrazol-5-yl)-8-azabicyclo[3.2.1]octan-2-yl)-1-(4-chloro-2-hydroxyphenyl)cyclopropane-1-carboxamide], the IC50 is 1000 to 2000 nM on human NLRP3 [1] (setting [4]), 10 to 100 nM against human NLRP3 [2] (setting [6]) and less than 1000 nM on human NLRP3 [3] (displacement of 3H-MCC950).
Consider `O=C(N[C@@H]1CC[C@H]2CC[C@@H]1N2c1nnn[nH]1)C1(c2ccc(OC(F)F)cc2O)CC1` [77C*, N-((1S,2R,5S)-8-(1H-tetrazol-5-yl)-8-azabicyclo[3.2.1]octan-2-yl)-1-(4-(difluoromethoxy)-2-hydroxyphenyl)cyclopropane-1-carboxamide], for which the results for the IC50 at human NLRP3 [1] (setting [7]), at human NLRP3 [2] (setting [6]) and at human NLRP3 [3] (displacement of 3H-MCC950) were less than 1000 nM, 10 to 100 nM and less than 1000 nM, respectively.
`O=C(N[C@@H]1CC[C@H]2CC[C@@H]1N2c1nnn[nH]1)C1(c2ccc(OC(F)(F)F)cc2O)CC1` [78C*, N-((1S,2R,5S)-8-(1H-tetrazol-5-yl)-8-azabicyclo[3.2.1]octan-2-yl)-1-(2-hydroxy-4-(trifluoromethoxy)phenyl)cyclopropane-1-carboxamide]: the IC50 on human NLRP3 [1] (setting [4]) is 2000 to 3000 nM; against human NLRP3 [2] (setting [6]), 10 to 100 nM; at human NLRP3 [3] (displacement of 3H-MCC950) it was less than 1000 nM.
In the case of `CC(C)c1ccc(C2(C(=O)N[C@@H]3C[C@H](C)CCN(c4nnn[nH]4)C3)CC2)c(O)c1` (single isomer, unassigned) [27A*, 1-(2-hydroxy-4-isopropylphenyl)-N-(5-methyl-1-(1H-tetrazol-5-yl)azepan-3-yl)cyclopropane-1-carboxamide], the IC50 at human NLRP3 [1] (setting [4]) is less than 1000 nM; on human NLRP3 [2] (setting [5]), less than 10 nM; at human NLRP3 [3] (displacement of 3H-MCC950), less than 1000 nM.
With `C[C@@H]1CCN(c2nnn[nH]2)C[C@H](NC(=O)C2(c3ccc(OC(F)(F)F)cc3F)CC2)C1` (single isomer, unassigned) [64A*], the results for the IC50 on human NLRP3 [1] (setting [4]), on human NLRP3 [2] (setting [5]) and on human NLRP3 [3] (displacement of 3H-MCC950) were less than 1000 nM, 10 to 100 nM and less than 1000 nM, respectively.
For `C[C@H]1CC[C@@H](NC(=O)C2(c3ccc(C(F)(F)F)cc3O)CC2)CN(c2nnn[nH]2)C1` [89A*, 1-(2-hydroxy-4-(trifluoromethyl)phenyl)-N-((3R,6S)-6-methyl-1-(1H-tetrazol-5-yl)azepan-3-yl)cyclopropane-1-carboxamide], the figures for the IC50 at human NLRP3 [1] (setting [4]), at human NLRP3 [2] (setting [5]) and at human NLRP3 [3] (displacement of 3H-MCC950) were 2000 to 3000 nM, less than 10 nM and less than 1000 nM, respectively.
For `Cc1ccc(C2(C(=O)N[C@@H]3C[C@H](C)CN(c4nnn[nH]4)C3)CC2)c(O)c1` [Compound 20A, 1-(2-hydroxy-4-methylphenyl)-N-((3R,5S)-5-methyl-1-(1H-tetrazol-5-yl)piperidin-3-yl)cyclopropane-1-carboxamide], the IC50 was less than 1000 nM on human NLRP3 [1] (setting [4]), 10 to 100 nM at human NLRP3 [2] (setting [5]) and less than 1000 nM at human NLRP3 [3] (displacement of 3H-MCC950).
As to `C[C@H]1C[C@@H](NC(=O)C2(c3ccc(OC(F)(F)F)cc3O)CC2)CN(c2nnn[nH]2)C1` [Compound 17A, 1-(2-hydroxy-4-(trifluoromethoxy)phenyl)-N-((3R,5S)-5-methyl-1-(1H-tetrazol-5-yl)piperidin-3-yl)cyclopropane-1-carboxamide], the IC50 on human NLRP3 [1] (setting [4]) is less than 1000 nM; at human NLRP3 [1] (read-out: hWB IC50) it was 230 nM; on human NLRP3 [2] (setting [5]), 10 to 100 nM; at human NLRP3 [2] (read-out: PBMC IC50), 17 nM; on human NLRP3 [3] (displacement of 3H-MCC950), less than 1000 nM; at human NLRP3 [3], 98 nM.
As for `Cc1cc(Cl)cc(O)c1C1(C(=O)N[C@@H]2C[C@H](C)CN(c3nnn[nH]3)C2)CC1` [Compound 33A, 1-(4-chloro-2-hydroxy-6-methylphenyl)-N-((3R,5S)-5-methyl-1-(1H-tetrazol-5-yl)piperidin-3-yl)cyclopropane-1-carboxamide], the IC50 at human NLRP3 [1] (setting [4]) was more than 3000 nM; on human NLRP3 [2] (setting [5]), 10 to 100 nM; at human NLRP3 [3] (displacement of 3H-MCC950) it was less than 1000 nM.
`C[C@@H]1C[C@@H](NC(=O)C2(c3ccc(C4CC4)c(F)c3O)CC2)[C@H]2CC[C@@H]1N2c1nnn[nH]1` [83A*, 1-(4-cyclopropy1-3-fluoro-2-hydroxyphenyl)-N-((1R,2R,4R,5S)-4-methy1-8-(1H-tetrazol-5-yl)-8-azabicyclo[3.2.1]octan-2-yl)cyclopropane-1-carboxamide]: the values for the IC50 against human NLRP3 [1] (setting [7]), on human NLRP3 [2] (setting [6]) and on human NLRP3 [3] (displacement of 3H-MCC950) were less than 1000 nM, less than 10 nM and less than 1000 nM, respectively.
For `C[C@@H]1C[C@@H](NC(=O)C2(c3ccc(OC(F)(F)F)cc3)CC2)[C@H]2CC[C@@H]1N2c1nnn[nH]1` [82A*, N-((1R,2R,4R,5S)-4-methy1-8-(1H-tetrazol-5-yl)-8-azabicyclo[3.2.1]octan-2-yl)-1-(4-(trifluoromethoxy)phenyl)cyclopropane-1-carboxamide], the results for the IC50 on human NLRP3 [1] (setting [7]), against human NLRP3 [2] (setting [6]) and at human NLRP3 [3] (displacement of 3H-MCC950) were less than 1000 nM, less than 10 nM and less than 1000 nM, respectively.
On to `C[C@@H]1CCN(c2nnn[nH]2)C[C@H](NC(=O)C2(c3ccc(OC(F)(F)F)cc3)CC2)C1` (single isomer, unassigned) [57A*], for which the IC50 on human NLRP3 [1] (setting [4]) was 1000 to 2000 nM; at human NLRP3 [2] (setting [5]) it was 10 to 100 nM; on human NLRP3 [3] (displacement of 3H-MCC950) it was less than 1000 nM.
On the same counts, the results for `C[C@@H]1CCN(c2nnn[nH]2)C[C@H](NC(=O)C2(c3cnc(Cl)cc3O)CC2)C1` (single isomer, unassigned) [99A*] are 2000 to 3000 nM, 10 to 100 nM and less than 1000 nM.
On the same counts, the results for `O=C(N[C@@H]1CCCCCN(c2nnn[nH]2)C1)C1(c2ccc(Cl)cc2)CC1` (single isomer, unassigned) [14A*, N-(1-(1H-tetrazol-5-yl)azocan-3-yl)-1-(4-chlorophenyl)cyclopropane-1-carboxamide] are 1000 to 2000 nM, 10 to 100 nM and less than 1000 nM.
On the same counts, the results for `C[C@H]1C[C@@H](NC(=O)C2(c3c(O)cc(C4CC4)cc3OC(F)(F)F)CC2)CN(c2nnn[nH]2)C1` (single isomer, unassigned) [95A*] are more than 3000 nM, 10 to 100 nM and less than 1000 nM.
As to `C[C@@H]1C[C@@H](NC(=O)C2(c3ccc(C4CC4)cc3)CC2)[C@H]2CC[C@@H]1N2c1nnn[nH]1` [81A*, 1-(4-cyclopropylphenyl)-N-((1R,2R,4R,5S)-4-methy1-8-(1H-tetrazol-5-yl)-8-azabicyclo[3.2.1]octan-2-yl)cyclopropane-1-carboxamide], the IC50 is less than 1000 nM at human NLRP3 [1] (setting [7]), 10 to 100 nM at human NLRP3 [2] (setting [6]) and less than 1000 nM at human NLRP3 [3] (displacement of 3H-MCC950).
With `C[C@@H]1CCN(c2nnn[nH]2)C[C@H](NC(=O)C2(c3ccc(Cl)nc3O)CC2)C1` (single isomer, unassigned) [100A*], the IC50 was more than 3000 nM at human NLRP3 [1] (setting [4]), 100 to 500 nM at human NLRP3 [2] (setting [5]) and less than 1000 nM on human NLRP3 [3] (displacement of 3H-MCC950).
